Measured values published in US20220054493A1, “INHIBITORS OF NGAL PROTEIN” (INSERM (INSTITUT NATIONAL DE LA SANTÉ ET DE LA RECHERCHE …, priority 2019, published 2022).

How the values were obtained:
recombinant murine NGAL = molecular target: T1, recombinant murine NGAL (Mus musculus, UniProt P11672); assay: NGAL-induced profibrotic and proinflammatory gene expression in renal fibroblasts; assay type: cell-based; settings: renal fibroblast cells stimulated with recombinant murine NGAL
T1 construct: purchased R&D Systems
T1 sequence (P11672 21-200): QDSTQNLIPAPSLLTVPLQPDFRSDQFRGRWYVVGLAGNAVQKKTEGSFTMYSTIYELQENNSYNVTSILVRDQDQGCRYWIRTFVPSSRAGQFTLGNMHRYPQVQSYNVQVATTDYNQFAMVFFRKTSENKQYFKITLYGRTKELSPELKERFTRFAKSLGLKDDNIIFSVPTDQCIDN
Description: Cell Culture Human cardiac fibroblasts (primary culture) were obtained from Promocell and maintained in medium (Fibroblast Media 3). Cells were cultured according to the manufacturer's instructions and used between passages 5 and 7. Cells were stimulated with aldosterone (10^-8 M, Sigma) or recombinant hNGAL (500 ng/mL, R&D Systems) for 24 h for protein analysis. Mouse kidney fibroblasts (MKF), were isolated from Wild Type (WT) mice. Briefly, mice 7 to 8 weeks were sacrificed by cervical dislocation and kidneys were cleaned and rinsed in cold DPBS (Dulbecco's Phosphate-Buffered Saline). The renal cortex was minced and incubated in Dulbecco's modified eagle medium/Nutrient mixture F-12 (DMEM/F12, Sigma) containing 1 mg/mL collagenase A (Roche) during 25 minutes at 37° C. The digestion was inactivated by adding culture medium (DMEM/F12+10% FBS) then the cell suspension was passed through a 100-μm cell strainer. After centrifugation, the pellet (containing MKF) was diluted with culture medium then plated in 75 cm^2 culture flask. […]
Frozen tissues (kidneys, heart) were homogenized in TRIzol (Life Technologies, 15596018) using FastPrep beads (MP-Bio, 6913-100). cDNAs were generated using the Superscript II reverse transcriptase kit (Invitrogen, 18064022), and qPCR was performed as previously described. Briefly, transcript levels were analysed in a CFX396 apparatus (Biorad). […]

CYP3A4 = molecular target: T2, CYP3A4 (Homo sapiens, UniProt P08684); assay: CYP3A4 inhibition assay (Vivid CYP3A4 assay); assay type: in vitro ADME
T2 construct: purchased Thermo Fisher Scientific
T2 sequence (P08684 whole entry): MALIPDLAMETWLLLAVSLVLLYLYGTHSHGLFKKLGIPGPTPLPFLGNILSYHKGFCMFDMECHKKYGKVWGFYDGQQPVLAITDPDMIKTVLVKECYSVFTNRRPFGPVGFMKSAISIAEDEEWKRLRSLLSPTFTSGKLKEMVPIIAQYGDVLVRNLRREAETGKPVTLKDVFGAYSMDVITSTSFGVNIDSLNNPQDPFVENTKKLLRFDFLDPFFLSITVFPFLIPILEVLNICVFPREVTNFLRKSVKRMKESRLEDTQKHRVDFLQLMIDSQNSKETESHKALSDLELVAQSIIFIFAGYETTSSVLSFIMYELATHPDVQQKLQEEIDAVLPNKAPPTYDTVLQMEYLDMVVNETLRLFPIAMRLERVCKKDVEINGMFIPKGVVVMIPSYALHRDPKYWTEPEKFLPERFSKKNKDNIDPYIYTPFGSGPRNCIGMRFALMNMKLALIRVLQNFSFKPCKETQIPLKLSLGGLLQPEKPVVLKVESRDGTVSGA
Description: (§1) Two specific toxicity assays have been performed to assess hepatoxicity and cardiotoxicity. Hepatotoxicity was evaluated in isolated hepatocytes from swiss mice and determined by the MTT colorimetric assay. Cardiotoxicity was evaluated using the commercially available Predictor hERG fluorescence polarization kit (Thermo Fisher Scientific). Several ADME assays have been carried out on the compounds generated throughout the project. The following experiments were undertaken: Stability in human microsomes, binding to human plasma protein, and CYP3A4 inhibition assay (Vivid CYP3A4 assay, Thermo Fisher Scientific). Physico-chemical properties were also assessed such as aqueous solubility and chemical stability.

[1] = test system: Myocardial Infarction Model; assay: Cardiac function (echocardiography, LV hemodynamics) in the myocardial infarction model; assay type: in vivo, mice; settings: MI model, 100 mg/kg/day in food admix, three months
Description: 8-12 weeks old mice (WT C57B16 for GP1 compound experiments) or 8-12 weeks old mice with genetic inactivation of lcn2 (as described in Martinez-martinez et al., Hypertension 2017, December; 70(6):1148-1156) have been used. LV diastolic and systolic diameters were measured in anesthetized (isofluorane 1.5%) mice, according to the American Society of Echocardiography's leading-edge method (using Vivid 7 echograph a 14 Mhz probe). In addition, LV outflow velocity was measured by pulsed waves, and CO was calculated as follows: CO=aortic VTI×[πx·(LV outflow diameter/2)^2]×heart rate, where VTI is velocity-time integral.
LV hemodynamic was assessed as described previously.
Mice were anesthetized (chloral 320 mg·kg−1, IP) and the carotid artery cannulated with a pressure-volume catheter (SPR839, Millar-Instruments, USA) and the catheter was advanced into the LV. Pressure-volume loops were obtained at baseline and during loading by gently occluding the abdominal aorta. LV end-systolic and end-diastolic pressures, dP/dtmax/min, LV relaxation constant tau and were measured/calculated with IOX software (EMKA, France).

CKD Mouse Model = assay: Renal fibrosis in the CKD mouse model (sirius red staining); assay type: in vivo, mice; settings: two months administration; FIG. 14 A-B
Description: Chronic kidney disease (CKD) was induced by subtotal nephrectomy (Nx) in eight-weeks-old FVB male mice (25-26 g). All surgeries were performed under ketamine/xylazine anaesthesia. Briefly, the left kidney was exposed, and the upper and lower poles were tied with a poly-glycolic acid suture line. The peritoneum and skin were then sutured, and the animals were returned to their individual cages. After one week of recovery, the second kidney was removed. Removal of the second kidney represents TO. Sham mice were subjected to the same surgical procedures but neither renal poles nor the right kidney were removed. Mice were monitored for any sign of distress, and those observed to be experiencing severe, unrelievable pain were euthanized. Renal failure was assessed by the measure of plasma creatinine and urea with an automatic analyser (Konelab 20i; Thermo Fisher Scientific, Vernon Hills, Ill.) at weeks 4 and 10 post-Nx.

[2] = test system: isolated hepatocytes from swiss mice; assay: Hepatotoxicity, MTT colorimetric assay; assay type: cell-based
Description: as §1

NGAL = molecular target: T3, NGAL (Homo sapiens, UniProt P80188); assay: NGAL-induced IL6 secretion in human cardiac fibroblasts (ELISA); assay type: cell-based; settings: NGAL 10 ng/ml, FIGS. 1 and 2 panel A
T3 construct: purchased R&D Systems
T3 sequence (P80188 21-198): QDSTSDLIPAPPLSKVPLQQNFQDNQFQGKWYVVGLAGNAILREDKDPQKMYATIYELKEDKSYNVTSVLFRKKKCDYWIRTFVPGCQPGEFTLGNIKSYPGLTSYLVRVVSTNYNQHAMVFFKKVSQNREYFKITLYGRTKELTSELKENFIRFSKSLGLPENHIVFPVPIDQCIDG
Description: Cell Culture Human cardiac fibroblasts (primary culture) were obtained from Promocell and maintained in medium (Fibroblast Media 3). Cells were cultured according to the manufacturer's instructions and used between passages 5 and 7. Cells were stimulated with aldosterone (10^-8 M, Sigma) or recombinant hNGAL (500 ng/mL, R&D Systems) for 24 h for protein analysis. Mouse kidney fibroblasts (MKF), were isolated from Wild Type (WT) mice. Briefly, mice 7 to 8 weeks were sacrificed by cervical dislocation and kidneys were cleaned and rinsed in cold DPBS (Dulbecco's Phosphate-Buffered Saline). The renal cortex was minced and incubated in Dulbecco's modified eagle medium/Nutrient mixture F-12 (DMEM/F12, Sigma) containing 1 mg/mL collagenase A (Roche) during 25 minutes at 37° C. The digestion was inactivated by adding culture medium (DMEM/F12+10% FBS) then the cell suspension was passed through a 100-μm cell strainer. After centrifugation, the pellet (containing MKF) was diluted with culture medium then plated in 75 cm^2 culture flask. After 24 hours MKF were washed with DPBS before replacement of fresh culture medium. Thereafter, culture medium was changed every 48 hours. Once 70-80% confluent, MKF were trypsinized and plated in 12 or 6-well plates. For experimental use, MKF were starved with culture medium containing only 3% FBS. MKF were treated with mNGAL (500 ng/mL, R&D Systems) for 24 h for gene expression analysis.
NGAL, IL6 and collagen type I concentrations were measured in cardiac tissue and cell supernatants, respectively, by ELISA according to the manufacturer's instructions (R&D Systems).
The inhibitory activity of the compounds was evaluated on the NGAL-induced IL6 secretion (NGAL 10 ng/ml) in human cardiac fibroblasts.
Inhibitory activities of 23 second generation compounds derived from GPZ614741 and GPZ058225 were evaluated on the NGAL-induced IL6 secretion (NGAL 10 ng/ml) in human cardiac fibroblasts.

## CC(=O)c1cccc(S(=O)(=O)NCc2ccccc2-n2cccn2)c1 [GPZ614741]
Recombinant murine NGAL; FIG. 16
  NGAL-induction of inflammatory (IL6, MCP1) gene expression: inhibited
Recombinant murine NGAL; FIG. 16A
  NGAL-induction of profibrotic (Collagen1, fibronectin, aSMA) gene expression: inhibited
CYP3A4
  processing by CYP3A4: partially processed
CYP3A4; human, recombinant CYP3A4 (Vivid CYP3A4 assay kit), 100 = no inhibition, read-out: CyP 3A4 Inhibition % (100 = no inhibition)
  Activity: 72.2 ± 1.94%
[1]; FIG. 7 panel A
  fractional shortening (LV Frac. Short.): significant increase
[1]; FIG. 7 panel D
  stroke volume: increased
[1]; FIG. 7 panel E
  cardiac output: increased
[1]; FIG. 7 panels B-C
  LV diastolic diameter (LV Diast. Diam.): slight although statistical non-significant decrease
  LV systolic diameter (LV Syst. Diam.): slight although statistical non-significant decrease
[1]; FIG. 8 panel A
  LV end-systolic pressure (LVESP): not modified
[1]; FIG. 8 panel B
  LV dP/dtmax: significant increase
[1]; FIG. 8 panel C
  LV end-diastolic pressure (LVEDP): tended to be reduced
[1]; FIG. 8 panel D
  LV dP/dtmin: increased
[1]; FIG. 8 panel E
  LV relaxation constant Tau: decreased
CKD Mouse Model
  interstitial fibrosis associated to CKD (sirius red staining): strong antifibrotic effect
[2]; MTT up to 0.1 mM
  hepatotoxicity (toxicity for hepatocytes): no toxicity
[2]; cell wrapped over two lines: No tox up / 100 uM
  Hepatotoxicity: No tox up
NGAL
  NGAL-induced IL6 secretion: inhibited
